Laboratory results as given in US20230026611A1, “ARYL HETEROCYCLIC COMPOUNDS AS Kv1.3 POTASSIUM SHAKER CHANNEL BLOCKERS” (D. E. Shaw Research, LLC, priority 2019, published 2023).

What was measured:
Kv1.3 potassium channel = biological target: T1, Kv1.3 potassium channel (Homo sapiens, UniProt P22001); experiment: Kv1.3 potassium channel blocker activity, automated whole-cell patch clamp (Patchliner) in CHO-K1 cells stably expressing Kv1.3; assay type: cell-based; settings: CHO-K1 cells stably expressing Kv1.3; patch clamp, current inhibition; read-out: Kv1.3 IC50
T1 construct: expressed in transfected cells
Description: Example 82. Evaluation of Kv1.3 potassium channel blocker activities
This assay is used to evaluate the disclosed compounds' activities as Kv1.3 potassium channel blockers.
CHO-K1 cells stably expressing Kv1.3 were grown in DMEM containing 10% heat-inactivated FBS, 1 mM sodium pyruvate, 2 mM L-glutamine, and G418 (500 μg/ml).
All compounds were dissolved in DMSO at 30 mM.
The currents were evoked by applying 100 ms depolarizing pulses from −90 mV (holding potential) to +40 mV were applied with 0.1 Hz frequency. […] 10-second breaks were used between pulse trains (see Table A below).
Data were sampled at 10 kHz without filtering. Passive leak currents were subtracted online using a P/4 procedure (HEKA Elektronik Dr. Schulze GmbH). […] Total compound incubation time before the next pulse train was not longer than 10 seconds. Peak current inhibition was observed during compound equilibration.

hERG channel = hERG channel (Homo sapiens, UniProt Q12809); experiment: hERG electrophysiology, automated whole-cell patch clamp (Patchliner) in CHO-K1 cells stably expressing hERG
hERG channel, sequence (Q12809 whole entry): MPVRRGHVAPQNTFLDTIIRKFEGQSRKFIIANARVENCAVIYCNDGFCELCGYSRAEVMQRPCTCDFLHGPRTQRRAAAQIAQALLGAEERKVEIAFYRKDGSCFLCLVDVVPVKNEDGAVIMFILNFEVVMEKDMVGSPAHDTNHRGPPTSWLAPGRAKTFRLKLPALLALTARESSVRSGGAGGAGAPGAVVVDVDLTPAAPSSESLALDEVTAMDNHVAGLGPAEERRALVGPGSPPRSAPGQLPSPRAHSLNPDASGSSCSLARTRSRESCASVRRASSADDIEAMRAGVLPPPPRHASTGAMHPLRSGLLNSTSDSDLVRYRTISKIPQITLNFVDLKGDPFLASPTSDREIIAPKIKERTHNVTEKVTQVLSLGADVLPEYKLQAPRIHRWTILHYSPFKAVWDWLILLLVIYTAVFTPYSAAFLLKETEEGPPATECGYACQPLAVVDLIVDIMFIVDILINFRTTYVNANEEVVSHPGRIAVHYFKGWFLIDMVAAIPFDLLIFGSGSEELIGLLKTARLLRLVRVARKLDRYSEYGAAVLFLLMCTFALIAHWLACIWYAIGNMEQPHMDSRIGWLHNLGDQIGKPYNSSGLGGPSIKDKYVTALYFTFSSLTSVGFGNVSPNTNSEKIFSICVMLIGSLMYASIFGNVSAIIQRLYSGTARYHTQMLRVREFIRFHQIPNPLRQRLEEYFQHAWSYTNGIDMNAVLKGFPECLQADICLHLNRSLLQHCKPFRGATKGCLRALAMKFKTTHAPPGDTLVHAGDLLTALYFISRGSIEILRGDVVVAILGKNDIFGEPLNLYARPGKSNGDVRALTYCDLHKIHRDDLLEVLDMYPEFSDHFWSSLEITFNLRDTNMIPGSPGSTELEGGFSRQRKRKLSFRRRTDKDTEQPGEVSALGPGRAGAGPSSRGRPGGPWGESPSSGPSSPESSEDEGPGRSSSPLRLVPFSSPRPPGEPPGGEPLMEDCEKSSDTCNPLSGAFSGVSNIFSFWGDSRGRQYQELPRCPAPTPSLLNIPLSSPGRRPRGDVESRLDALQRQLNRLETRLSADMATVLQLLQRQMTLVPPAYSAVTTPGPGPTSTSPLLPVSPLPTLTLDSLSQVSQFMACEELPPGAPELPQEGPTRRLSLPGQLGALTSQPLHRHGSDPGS
Description: Evaluation of hERG Activities
This assay is used to evaluate the disclosed compounds's inhibition activities against the hERG channel.
CHO-K1 cells stably expressing hERG were grown in Ham's F-12 Medium with glutamine containing 10% heat-inactivated FBS, 1% penicillin/streptomycin, hygromycin (100 μg/ml) and G418 (100 μg/ml). Cells were grown in culture flasks at 37° C. in a 5% CO2-humidified incubator.
The cells were bathed in an extracellular solution containing 140 mM NaCl, 4 mM KCl, 2 mM CaCl2), 1 mM MgCl2, 5 mM Glucose, 10 mM HEPES; pH adjusted to 7.4 with NaOH; 295-305 mOsm. The internal solution contained 50 mM KCl, 10 mM NaCl, 60 mM KF, 20 mM EGTA, 10 mM HEPES; pH adjusted to 7.2 with KOH; 285 mOsm. All compounds were dissolved in DMSO at 30 mM. Compound stock solutions were freshly diluted with external solution to concentrations of 30 nM, 100 nM, 300 nM, 1 μM, 3 μM, 10 μM, 30 μM and 100 μM. The highest content of DMSO (0.3%) was present in 100 μM.
The voltage protocol (see Table B) was designed to simulate voltage changes during a cardiac action potential with a 300 ms depolarization to +20 mV (analogous to the plateau phase of the cardiac action potential), a repolarization for 300 ms to −50 mV (inducing a tail current) and a final step to the holding potential of −80 mV. The pulse frequency was 0.3 Hz. Control (compound-free) and compound pulse trains for each compound concentration applied contained 70 pulses.
Whole-cell current recordings and compound application were enabled by means of an automated patch clamp platform Patchliner (Nanion). EPC 10 patch clamp amplifier (HEKA) along with Patchmaster software (HEKA Elektronik Dr. Schulze GmbH) was used for data acquisition. Data were sampled at 10 kHz without filtering. Increasing compound concentrations were applied consecutively to the same cell without washouts in between.
AUC and PEAK values were obtained with Patchmaster (HEKA Elektronik Dr. Schulze GmbH). To determine IC50 the last single pulse in the pulse train corresponding to a given compound concentration was used. Obtained AUC and PEAK values in the presence of compound were normalized to control values in the absence of compound. Using Origin (OridinLab), IC50 was derived from data fit to Hill equation: Icompound/control=(100−A)/(1+([compound]/IC50)nH)+A, where IC50 is the concentration at which current inhibition is half-maximal, [compound] is the applied compound concentration, A is the fraction of current that is not blocked and nH is the Hill coefficient.

T1 sequence (P22001 whole entry): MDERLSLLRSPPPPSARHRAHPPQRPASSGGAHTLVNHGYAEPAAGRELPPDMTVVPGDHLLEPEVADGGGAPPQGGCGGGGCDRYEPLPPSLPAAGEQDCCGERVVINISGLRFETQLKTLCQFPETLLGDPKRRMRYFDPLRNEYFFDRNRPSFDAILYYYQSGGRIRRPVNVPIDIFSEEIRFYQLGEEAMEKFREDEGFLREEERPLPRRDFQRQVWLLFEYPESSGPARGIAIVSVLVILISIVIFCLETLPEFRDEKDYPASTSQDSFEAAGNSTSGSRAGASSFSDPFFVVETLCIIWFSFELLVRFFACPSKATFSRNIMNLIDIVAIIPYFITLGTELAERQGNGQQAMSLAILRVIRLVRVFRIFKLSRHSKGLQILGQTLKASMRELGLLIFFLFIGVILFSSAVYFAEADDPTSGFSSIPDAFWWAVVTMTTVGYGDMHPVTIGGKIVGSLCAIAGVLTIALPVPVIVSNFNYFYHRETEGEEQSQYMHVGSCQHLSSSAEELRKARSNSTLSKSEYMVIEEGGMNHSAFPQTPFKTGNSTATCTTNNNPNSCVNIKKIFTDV

Row | SMILES | IC50 (Kv1.3 potassium channel) | IC50 (hERG channel)
1 | O=S(=O)(NCC1CC(c2c(O)ccc(Cl)c2Cl)CCN1)c1ccccc1 [Compound 94, N-(2R,4S)-rel-[[4-(2,3-dichloro-6-hydroxyphenyl)piperidin-2-yl]methyl]benzenesulfonamide] | < 1 µM | < 30 µM
2 | Oc1cc(Cl)c(Cl)cc1N1CCNCC1 [Compound 5, 4,5-dichloro-2-(piperazin-1-yl)phenol] | < 10 µM | < 30 µM
3 | Oc1cc(Cl)c(Cl)cc1C1CCNC1 (single isomer, unassigned) [Compound 38, 4,5-dichloro-2-(pyrrolidin-3-yl)phenol] | < 1 µM | < 30 µM
4 | Oc1ccc(Cl)c(Cl)c1C1CCNCC1 [Compound 55, 3,4-dichloro-2-(piperidin-4-yl)phenol] | < 1 µM | < 30 µM
5 | NC[C@H]1C[C@@H](c2c(O)ccc(Cl)c2Cl)CCN1 (relative stereo) [Compound 74, (2R,4S)-rel-2-(aminomethyl)piperidin-4-yl]-3,4-dichlorophenol] | < 1 µM | > 30 µM
6 | Nc1nnc([C@@H]2C[C@H](c3c(O)ccc(Cl)c3Cl)CCN2)o1 (single isomer, unassigned) [Compound 105] | < 1 µM | > 30 µM
7 | NC(=O)[C@H]1C[C@@H](c2cc(Cl)c(Cl)cc2O)CCN1 (relative stereo) [Compound 85, (2R,4S)-rel-4-(4,5-dichloro-2-hydroxyphenyl)piperidine-2-carboxamide] | < 1 µM | > 30 µM
8 | Oc1cc(Cl)c(Cl)cc1C1CCNCC1 [Compound 3, 4,5-dichloro-2-(piperidin-4-yl)phenol] | < 1 µM | < 30 µM
9 | Cc1cc(O)c(C2CCNCC2)cc1Cl [Compound 12, 4-chloro-5-methyl-2-(piperidin-4-yl)phenol] | < 10 µM | < 30 µM
10 | O=C(NC1CNC1)[C@H]1CC[C@H](c2c(O)ccc(Cl)c2Cl)N1 (single isomer, unassigned) [Compound 118] | < 1 µM | > 100 µM
11 | NC(=O)[C@@H]1C[C@H](c2c(O)cc(Cl)c(Cl)c2Cl)CCN1 (single isomer, unassigned) [Compound 63] | < 1 µM | < 30 µM
12 | O=S(=O)(NC[C@H]1C[C@@H](c2c(O)ccc(Cl)c2Cl)CCN1)C1CC1 (relative stereo) [Compound 97, N-(2R,4S)-rel-[[4-(2,3-dichloro-6-hydroxyphenyl)piperidin-2-yl]methyl]cyclopropanesulfonamide] | < 1 µM | > 30 µM
13 | O=C(NC1CNC1)[C@@H]1CN[C@@H](c2c(O)ccc(Cl)c2Cl)C1 (single isomer, unassigned) [Compound 122] | < 1 µM | > 100 µM
14 | Oc1cc(Cl)cc(Cl)c1C1CCNCC1 [Compound 57, 3,5-dichloro-2-(piperidin-4-yl)phenol] | < 1 µM | < 30 µM
15 | O=C(C[C@H]1CC(c2c(O)ccc(Cl)c2Cl)CCN1)N1CCOCC1 (single isomer, unassigned) [Compound 67] | < 1 µM | > 30 µM
16 | Oc1ccc(Cl)c(Cl)c1C1CCNC(c2cn[nH]c2)C1 (stereo not shown) [Compound 116, 3,4-dichloro-2-[2-(1H-pyrazol-4-yl)piperidin-4-yl]phenol] | < 1 µM | > 30 µM

Row | SMILES | IC50 (Kv1.3 potassium channel) | IC50 (hERG channel)
17 | CS(=O)(=O)NCC1CC(c2c(O)ccc(Cl)c2Cl)CCN1 [Compound 100, (2R,4S)-rel-N-[[4-(2,3-dichloro-6-hydroxyphenyl)piperidin-2-yl]methyl]methanesulfonamide] | < 1 µM | > 30 µM
18 | Oc1cc(Cl)c(Cl)cc1C1CCCCNC1 (stereo not shown) [Compound 40, 2-(azepan-3-yl)-4,5-dichlorophenol] | < 10 µM | < 30 µM
19 | Cn1cc(NC(=O)C[C@H]2C[C@@H](c3c(O)ccc(Cl)c3Cl)CCN2)cn1 (relative stereo) [Compound 114, (2R,4S)-rel-2-[4-(2,3-dichloro-6-hydroxyphenyl)piperidin-2-yl]-N-(1-methyl-1H-pyrazol-4-yl)acetamide] | < 1 µM | > 30 µM
20 | O=S(=O)(NCC1CC(c2c(O)ccc(Cl)c2Cl)CCN1)c1cccnc1 [Compound 6, N-(2R,4S)-rel-[[4-(2,3-dichloro-6-hydroxyphenyl)piperidin-2-yl]methyl]pyridine-3-sulfonamide] | < 1 µM | > 30 µM
21 | NC(=O)C[C@@H]1C[C@H](c2c(O)ccc(Cl)c2Cl)CCN1 (single isomer, unassigned) [Compound 109] | < 1 µM | > 30 µM
22 | CNC1CCN(c2cc(Cl)c(Cl)cc2O)CC1 [Compound 24, 4,5-dichloro-2-[4-(methylamino)pip-eridin-1-yl]phenol] | < 1 µM | < 30 µM
23 | NCC1CCN(c2cc(Cl)c(Cl)cc2O)CC1 [Compound 28, 2-[4-(aminomethyl)pip-eridin-1-yl]-4,5-dichlorophenol] | < 1 µM | < 30 µM
24 | CC1(N)CCN(c2cc(Cl)c(Cl)cc2O)CC1 [Compound 25, 2-(4-amino-4-methylpiperidin-l-yl)-4,5-dichlorophenol] | < 1 µM | < 30 µM
25 | NC(=O)[C@H]1CNCC[C@H]1c1cc(Cl)c(Cl)cc1O (single isomer, unassigned) [Compound 42] | < 1 µM | > 30 µM
26 | Oc1cc(Cl)c(Cl)cc1C1CCCNCC1 (stereo not shown) [Compound 39, 2-(azepan-4-yl)-4,5-dichlorophenol] | < 1 µM | < 30 µM
27 | Oc1cc(Cl)c(Cl)cc1C1CCCNC1 (stereo not shown) [Compound 16, 4,5-dichloro-2-(piperidin-3-yl)phenol] | < 1 µM | < 30 µM
28 | NC(=O)NCC1CC(c2c(O)ccc(Cl)c2Cl)CCN1 [Compound 102, (2R,4S)-rel-[4-(2,3-dichloro-6-hydroxyphenyl)piperidin-2-yl]methylurea] | < 1 µM | > 30 µM
29 | NC(=O)[C@H]1C[C@@H](c2c(O)ccc(Cl)c2Cl)CCN1 (single isomer, unassigned) [Compound 70] | < 1 µM | > 30 µM
30 | O=C(NC1CNC1)C1CCCC(c2c(O)ccc(Cl)c2Cl)N1 (stereo not shown) [Compound 127, N-(azetidin-3-yl)-6-(2,3-dichloro-6-hydroxyphenyl)piperidine-2-carboxamide] | < 10 µM | > 30 µM
31 | NC(=O)N1CCC(c2c(O)cc(Cl)c(Cl)c2Cl)CC1 [Compound 60, 4-(2,3,4-trichloro-6-hydroxyphenyl)piperidine-1-carboxamide] | < 1 µM | < 30 µM
32 | NC(=O)C1CC(c2c(O)cc(Cl)c(Cl)c2Cl)CCN1 (stereo not shown) [Compound 61, 4-(2,3,4-trichloro-6-hydroxyphenyl)piperidine-2-carboxamide] | < 1 µM | < 30 µM
